Source: PubChem BioAssay AID1963838 (Molecular Pharmacology Branch, DTP, NCI, 2024)

System: 855422-203-R-J1-PDC complex spheroid viability
Test: Anticancer human tumor 855422-203-R-J1-PDC patient-derived bladder carcinoma cell line growth inhibition [POLQ]
Settings: for IC50: curve of first compound; for viability, T/C: stronger effect = lower value
Experimental: Multicellular complex tumor spheroid response to Polymerase (POL) inhibitors (novobiocin, ART-558, RP6685) in combination with a variety of drugs and investigational agents in selected tumor cell lines
The POL inhibitors (novobiocin, ART-558, and RP6685) were evaluated both individually and in combination with standard of care and investigational anticancer small molecules within a complex spheroid model of solid tumors. . Complex spheroids include a stromal component modeled by human endothelial cells (HUVEC) and fibroblasts modeled by human mesenchymal stem cells (MSCs). The concentration ranges selected for each drug and investigational agent were based upon clinically achievable concentrations if the clinical Cmax of the agent was known.
Compounds. The drugs and investigational agents: novobiocin (NSC847541), ART-558 (NSC835418), RP-6685 (NSC848927), peposertib (NSC802822), ceralasertib (NSC780249), elimusertib (NSC800525), camonsertib (NSC841442), AZD-1390 (NSC803789), olaparib (NSC753686), talazoparib (NSC767125), rucaparib (NSC756644), sotorasib (NSC818433), MRTX-1133 (NSC836407), SN-38 (NSC673596), topotecan (NSC609699), epotoside (NSC141540), doxorubicin (NSC123127), gemcitabine (NSC613327), 5-fluorouracil (NSC19893), paclitaxel (NSC125973), vemurafenib (NSC761431), MSA-2 (NSC828583), SN-011 (NSC837082), adavosertib (NSC754352), prexasertib (NSC758257), carboplatin (NSC241240) and oxaliplatin (NSC266046), were obtained from the National Cancer Institute (NCI) Developmental Therapeutics Program Chemical Repository (21). The FDA-approved anticancer drug set is available from the Developmental Therapeutics Program at https://dtp.cancer.gov/organization/dscb/obtaining/. […] The stock solutions were prepared in dimethyl sulfoxide (DMSO, Sigma-Aldrich, St. Louis, MO, cat. D2650), except for the platinum compounds which were prepared in saline (Quality Biological, Gaithersburg, MD, cat. 114-055-101), at 800-fold the tested concentration and stored at -70 degrees C prior to their use. All drugs and investigational agents were tested over a range starting from a high concentration at or near the clinical Cmax and decreasing in half-log increments. If the clinical Cmax for an agent had not been determined, the highest concentration tested was 10 microM, except for SN-38, which was tested at a high concentration of 1 microM.
Cell Culture. All cells were maintained in an incubator at 37 degrees C and 5% CO2 with 95% humidity. The PDC lines were cultured according to standard operating procedures established by the NCI PDMR (https://pdmr.cancer.gov). Table 3 of the manuscript, lists the cell lines along with the number of the three cell types plated to form the mct-spheroids and media for tumor cell growth. After thawing, all PDC lines, except 997537-175-T-J1-PDC and 415267-285-R-J2-PDC, were cultured in Matrigel-coated flasks prepared with a working solution of 1X Ham's F-12 nutrient mix, without supplementation (Thermo Fisher Scientific, cat. 11765054), 100 U/mL penicillin-streptomycin (Thermo Fisher Scientific, cat. 15140122), and 2.5% Matrigel (Corning Inc., Corning, NY, cat. 354248) for the first three passages. The two PDC lines 997537-175-T-J1-PDC and 415267-285-R-J2-PDC were cultured on uncoated flasks. The 857933-349-R-J2-PDC line was cultured in 6C/Colon 1B media containing advanced DMEM/F-12 (Thermo Fisher Scientific, cat. 12634028), 10 mM HEPES (Thermo Fisher Scientific, cat. 15630080), 1X GlutaMAX supplement (Thermo Fisher Scientific, cat. 35050061), 0.1 mg/mL primocin (InvivoGen, San Diego, CA, cat. ant-pm-2), 10% defined fetal bovine serum, heat inactivated (HyClone Laboratories Inc., Logan, UT, cat. SH30070.03HI), 50% L-WRN conditioned media (ATCC, cat. CRL-3276), 1.25 mM N-Acetyl-L-cysteine (Sigma-Aldrich, cat. A9165), 10 mM nicotinamide (Sigma-Aldrich, cat. N0636), 1X B-27 supplement (Thermo Fisher Scientific, cat. 17504044), 1X N-2 supplement (Thermo Fisher Scientific, cat. […]

[1] = second compound 0.0316 µM, first compound 0.0316 µM
[2] = second compound 0.0316 µM, first compound 0.1 µM
[3] = second compound 0.0316 µM, first compound 0.316 µM
[4] = second compound 0.0316 µM, first compound 1 µM
[5] = second compound 0.0316 µM, first compound 3.16 µM
[6] = second compound 0.0316 µM, first compound 10 µM
[7] = second compound 0.1 µM, first compound 0.0316 µM
[8] = second compound 0.1 µM, first compound 0.1 µM
[9] = second compound 0.1 µM, first compound 0.316 µM
[10] = second compound 0.1 µM, first compound 1 µM
[11] = second compound 0.1 µM, first compound 3.16 µM
[12] = second compound 0.1 µM, first compound 10 µM
[13] = second compound 0.316 µM, first compound 0.0316 µM
[14] = second compound 0.316 µM, first compound 0.1 µM
[15] = second compound 0.316 µM, first compound 0.316 µM
[16] = second compound 0.316 µM, first compound 1 µM
[17] = second compound 0.316 µM, first compound 3.16 µM
[18] = second compound 0.316 µM, first compound 10 µM
[19] = second compound 1 µM, first compound 0.0316 µM
[20] = second compound 1 µM, first compound 0.1 µM
[21] = second compound 1 µM, first compound 0.316 µM
[22] = second compound 1 µM, first compound 1 µM
[23] = second compound 1 µM, first compound 3.16 µM
[24] = second compound 1 µM, first compound 10 µM
[25] = second compound 3.16 µM, first compound 0.0316 µM
[26] = second compound 3.16 µM, first compound 0.1 µM
[27] = second compound 3.16 µM, first compound 0.316 µM
[28] = second compound 3.16 µM, first compound 1 µM
[29] = second compound 3.16 µM, first compound 3.16 µM
[30] = second compound 3.16 µM, first compound 10 µM
[31] = second compound 10 µM, first compound 0.0316 µM
[32] = second compound 10 µM, first compound 0.1 µM
[33] = second compound 10 µM, first compound 0.316 µM
[34] = second compound 10 µM, first compound 1 µM
[35] = second compound 10 µM, first compound 3.16 µM
[36] = second compound 10 µM, first compound 10 µM
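Further: spheroids exposed to compounds for seven days before readout.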

For CNCc1ccc(-c2[nH]c3cc(F)cc4c3c2CCNC4=O)cc1 + COC1C(OC(N)=O)C(O)C(Oc2ccc3c(O)c(NC(=O)c4ccc(O)c(CC=C(C)C)c4)c(=O)oc3c2C)OC1(C)C, the IC50 (second compound 0.0316 µM) was > 10000 nM, the IC50 (second compound 0.1 µM) was > 10000 nM and the IC50 (second compound 0.316 µM) was > 10000 nM. The IC50 (second compound 1 µM) was > 10000 nM, the IC50 (second compound 3.16 µM) was > 10000 nM and the IC50 (second compound 10 µM) was > 10000 nM. For the same compound, the viability, T/C [1] was 93.5%, the viability, T/C [2] was 104% and the viability, T/C [3] was 125%. The viability, T/C [4] was 106%, the viability, T/C [5] was 107% and the viability, T/C [6] was 105%. The viability, T/C [7] was 110%, the viability, T/C [8] was 108% and the viability, T/C [9] was 98%. For the same compound, the viability, T/C [10] was 109%, the viability, T/C [11] was 100% and the viability, T/C [12] was 110%. The viability, T/C [13] was 91.3%, the viability, T/C [14] was 97.8% and the viability, T/C [15] was 99.5%. For the same compound, the viability, T/C [16] was 104%, the viability, T/C [17] was 105% and the viability, T/C [18] was 118%. For the same compound, the viability, T/C [19] was 104%, the viability, T/C [20] was 107% and the viability, T/C [21] was 110%. For the same compound, the viability, T/C [22] was 107%, the viability, T/C [23] was 117% and the viability, T/C [24] was 104%. The viability, T/C [25] was 106%, the viability, T/C [26] was 92% and the viability, T/C [27] was 112%. The viability, T/C [28] was 109%, the viability, T/C [29] was 104% and the viability, T/C [30] was 109%. The viability, T/C [31] was 110%, the viability, T/C [32] was 101% and the viability, T/C [33] was 111%. The viability, T/C [34] was 106%, the viability, T/C [35] was 93.2% and the viability, T/C [36] was 97.4%.
With Nc1ccn(C2OC(CO)C(O)C2(F)F)c(=O)n1 (centres undefined) + COC1C(OC(N)=O)C(O)C(Oc2ccc3c(O)c(NC(=O)c4ccc(O)c(CC=C(C)C)c4)c(=O)oc3c2C)OC1(C)C the IC50 (second compound 0.0316 µM) was 43.7 nM, the IC50 (second compound 0.1 µM) was 48.2 nM and the IC50 (second compound 0.316 µM) was 65.4 nM. It also gave an IC50 (second compound 1 µM) of 58.8 nM, an IC50 (second compound 3.16 µM) of 68.1 nM and an IC50 (second compound 10 µM) of 65.8 nM. It also gave a viability, T/C [1] of 57.1%, a viability, T/C [2] of 31.7% and a viability, T/C [3] of 11.5%. For the same compound, the viability, T/C [4] was 9.46%, the viability, T/C [5] was 7.57% and the viability, T/C [6] was 6.26%. For the same compound, the viability, T/C [7] was 60.2%, the viability, T/C [8] was 32.2% and the viability, T/C [9] was 10.7%. For the same compound, the viability, T/C [10] was 8.44%, the viability, T/C [11] was 7.41% and the viability, T/C [12] was 6.76%. For the same compound, the viability, T/C [13] was 78.4%, the viability, T/C [14] was 33.5% and the viability, T/C [15] was 11.3%. The viability, T/C [16] was 8.38%, the viability, T/C [17] was 8.35% and the viability, T/C [18] was 5.06%. The viability, T/C [19] was 72.4%, the viability, T/C [20] was 31% and the viability, T/C [21] was 12.2%. For the same compound, the viability, T/C [22] was 9.87%, the viability, T/C [23] was 6.93% and the viability, T/C [24] was 6.4%. For the same compound, the viability, T/C [25] was 75.4%, the viability, T/C [26] was 37.3% and the viability, T/C [27] was 9.1%. For the same compound, the viability, T/C [28] was 9.44%, the viability, T/C [29] was 10.2% and the viability, T/C [30] was 6.39%. The viability, T/C [31] was 72.8%, the viability, T/C [32] was 37% and the viability, T/C [33] was 11.5%. The viability, T/C [34] was 11.4%, the viability, T/C [35] was 7.42% and the viability, T/C [36] was 5.66%.
